Data on 21 compounds can be found in ChEMBL document CHEMBL5131403, “Synthesis and structure-activity relationship studies of 1,5-isomers of triazole-pyrrolopyrimidine as selective Janus kinase 1 (JAK1) inhibitors” (Bioorg Med Chem Lett, 2022).

Assay [1] has as its target T1, Tyrosine-protein kinase JAK1 (Homo sapiens, UniProt P23458). Briefly: Inhibition of JAK1 (unknown origin) at 1 uM by biochemical assay relative to control.
In assay [2] the target is T1, Tyrosine-protein kinase JAK1. The assay is described as follows: Inhibition of JAK1 (unknown origin) by biochemical assay.
Assay [3] addresses T2, Tyrosine-protein kinase JAK2 (Homo sapiens, UniProt O60674). Briefly: Inhibition of JAK2 (unknown origin) at 1 uM by biochemical assay relative to control.
Assay [4] deals with T2, Tyrosine-protein kinase JAK2. Briefly: Inhibition of JAK2 (unknown origin) by biochemical assay.
Assay [5] has as its target T3, Tyrosine-protein kinase JAK3 (Homo sapiens) (UniProt P52333).
T3 sequence (whole entry): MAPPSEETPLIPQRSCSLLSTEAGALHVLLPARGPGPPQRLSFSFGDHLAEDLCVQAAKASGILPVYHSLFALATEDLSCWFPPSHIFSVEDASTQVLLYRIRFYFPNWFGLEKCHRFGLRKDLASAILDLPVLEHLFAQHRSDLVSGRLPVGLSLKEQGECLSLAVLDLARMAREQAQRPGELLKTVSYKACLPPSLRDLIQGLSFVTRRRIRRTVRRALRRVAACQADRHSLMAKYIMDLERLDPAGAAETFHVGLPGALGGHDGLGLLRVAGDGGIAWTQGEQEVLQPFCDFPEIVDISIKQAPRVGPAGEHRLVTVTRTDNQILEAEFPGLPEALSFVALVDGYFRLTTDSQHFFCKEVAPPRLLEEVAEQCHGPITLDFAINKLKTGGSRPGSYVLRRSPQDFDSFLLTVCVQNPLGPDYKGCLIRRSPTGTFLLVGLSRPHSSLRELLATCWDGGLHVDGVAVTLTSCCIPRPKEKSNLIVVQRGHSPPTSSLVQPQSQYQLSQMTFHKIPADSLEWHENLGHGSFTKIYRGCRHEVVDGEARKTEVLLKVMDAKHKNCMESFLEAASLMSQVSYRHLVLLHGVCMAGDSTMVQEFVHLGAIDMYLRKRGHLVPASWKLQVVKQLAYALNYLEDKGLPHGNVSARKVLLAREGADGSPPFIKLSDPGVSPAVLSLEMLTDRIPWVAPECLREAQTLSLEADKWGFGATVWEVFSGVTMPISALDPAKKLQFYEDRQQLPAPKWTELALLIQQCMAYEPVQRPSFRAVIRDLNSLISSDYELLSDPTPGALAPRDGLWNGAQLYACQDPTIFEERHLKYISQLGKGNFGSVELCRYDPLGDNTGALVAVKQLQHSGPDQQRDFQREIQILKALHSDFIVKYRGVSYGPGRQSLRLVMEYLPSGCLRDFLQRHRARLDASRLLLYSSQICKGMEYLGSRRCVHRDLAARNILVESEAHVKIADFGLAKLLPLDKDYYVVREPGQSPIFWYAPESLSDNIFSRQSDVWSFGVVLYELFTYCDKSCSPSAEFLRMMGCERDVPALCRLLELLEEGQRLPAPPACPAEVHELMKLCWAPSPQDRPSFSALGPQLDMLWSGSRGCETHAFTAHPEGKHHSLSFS
The assay is described as follows: Inhibition of JAK3 (unknown origin) at 1 uM by biochemical assay relative to control.

In assay [6] the target is Non-receptor tyrosine-protein kinase TYK2 (Homo sapiens) (UniProt P29597). The assay is described as follows: Inhibition of TYK2 (unknown origin) at 1 uM by biochemical assay relative to control.
Sequence of Non-receptor tyrosine-protein kinase TYK2 (Homo sapiens) (P29597 whole entry): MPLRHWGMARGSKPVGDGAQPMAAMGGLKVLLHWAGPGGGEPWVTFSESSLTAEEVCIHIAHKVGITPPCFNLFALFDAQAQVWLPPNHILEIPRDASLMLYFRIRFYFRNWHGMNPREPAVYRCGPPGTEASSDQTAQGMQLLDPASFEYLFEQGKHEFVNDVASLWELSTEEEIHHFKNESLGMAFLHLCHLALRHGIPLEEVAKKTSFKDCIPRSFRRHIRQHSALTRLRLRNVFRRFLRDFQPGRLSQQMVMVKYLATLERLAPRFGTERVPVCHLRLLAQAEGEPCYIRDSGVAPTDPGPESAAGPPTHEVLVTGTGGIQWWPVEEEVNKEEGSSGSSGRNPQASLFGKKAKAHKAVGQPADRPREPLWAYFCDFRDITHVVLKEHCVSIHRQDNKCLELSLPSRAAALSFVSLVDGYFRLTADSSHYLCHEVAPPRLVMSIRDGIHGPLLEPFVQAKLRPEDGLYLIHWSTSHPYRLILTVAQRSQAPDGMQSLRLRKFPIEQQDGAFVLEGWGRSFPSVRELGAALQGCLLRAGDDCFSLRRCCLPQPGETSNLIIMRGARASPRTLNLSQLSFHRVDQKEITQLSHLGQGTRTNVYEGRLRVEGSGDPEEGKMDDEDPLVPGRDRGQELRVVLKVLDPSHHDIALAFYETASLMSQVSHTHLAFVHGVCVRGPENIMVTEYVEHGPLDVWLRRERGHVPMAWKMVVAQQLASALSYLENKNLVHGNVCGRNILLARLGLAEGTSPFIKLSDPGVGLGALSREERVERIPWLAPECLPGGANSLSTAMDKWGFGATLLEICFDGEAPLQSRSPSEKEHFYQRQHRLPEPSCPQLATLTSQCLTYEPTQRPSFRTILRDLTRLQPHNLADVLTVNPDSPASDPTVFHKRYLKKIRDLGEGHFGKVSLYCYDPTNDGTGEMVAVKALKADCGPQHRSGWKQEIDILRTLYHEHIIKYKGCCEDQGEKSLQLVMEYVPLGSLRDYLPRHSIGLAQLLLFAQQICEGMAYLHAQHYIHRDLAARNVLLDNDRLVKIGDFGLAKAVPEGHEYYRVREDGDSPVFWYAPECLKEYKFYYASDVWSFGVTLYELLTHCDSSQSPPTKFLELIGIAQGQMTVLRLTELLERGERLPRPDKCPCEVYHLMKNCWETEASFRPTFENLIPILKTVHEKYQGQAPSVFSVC
The species entered for assay [7] is Homo sapiens. The assay is described as follows: Selectivity index, ratio of IC50 for inhibition of JAK2 (unknown origin) to IC50 for inhibition of JAK1 (unknown origin).
The species named for assay [8] is Homo sapiens. The assay is described as follows: Selectivity index, ratio of inhibition of JAK1 (unknown origin) to inhibition of JAK2 (unknown origin).
The species entered for assay [9] is Homo sapiens. The assay is described as follows: Selectivity index, ratio of inhibition of JAK1 (unknown origin) to inhibition of JAK3 (unknown origin).

T1 sequence (P23458 whole entry): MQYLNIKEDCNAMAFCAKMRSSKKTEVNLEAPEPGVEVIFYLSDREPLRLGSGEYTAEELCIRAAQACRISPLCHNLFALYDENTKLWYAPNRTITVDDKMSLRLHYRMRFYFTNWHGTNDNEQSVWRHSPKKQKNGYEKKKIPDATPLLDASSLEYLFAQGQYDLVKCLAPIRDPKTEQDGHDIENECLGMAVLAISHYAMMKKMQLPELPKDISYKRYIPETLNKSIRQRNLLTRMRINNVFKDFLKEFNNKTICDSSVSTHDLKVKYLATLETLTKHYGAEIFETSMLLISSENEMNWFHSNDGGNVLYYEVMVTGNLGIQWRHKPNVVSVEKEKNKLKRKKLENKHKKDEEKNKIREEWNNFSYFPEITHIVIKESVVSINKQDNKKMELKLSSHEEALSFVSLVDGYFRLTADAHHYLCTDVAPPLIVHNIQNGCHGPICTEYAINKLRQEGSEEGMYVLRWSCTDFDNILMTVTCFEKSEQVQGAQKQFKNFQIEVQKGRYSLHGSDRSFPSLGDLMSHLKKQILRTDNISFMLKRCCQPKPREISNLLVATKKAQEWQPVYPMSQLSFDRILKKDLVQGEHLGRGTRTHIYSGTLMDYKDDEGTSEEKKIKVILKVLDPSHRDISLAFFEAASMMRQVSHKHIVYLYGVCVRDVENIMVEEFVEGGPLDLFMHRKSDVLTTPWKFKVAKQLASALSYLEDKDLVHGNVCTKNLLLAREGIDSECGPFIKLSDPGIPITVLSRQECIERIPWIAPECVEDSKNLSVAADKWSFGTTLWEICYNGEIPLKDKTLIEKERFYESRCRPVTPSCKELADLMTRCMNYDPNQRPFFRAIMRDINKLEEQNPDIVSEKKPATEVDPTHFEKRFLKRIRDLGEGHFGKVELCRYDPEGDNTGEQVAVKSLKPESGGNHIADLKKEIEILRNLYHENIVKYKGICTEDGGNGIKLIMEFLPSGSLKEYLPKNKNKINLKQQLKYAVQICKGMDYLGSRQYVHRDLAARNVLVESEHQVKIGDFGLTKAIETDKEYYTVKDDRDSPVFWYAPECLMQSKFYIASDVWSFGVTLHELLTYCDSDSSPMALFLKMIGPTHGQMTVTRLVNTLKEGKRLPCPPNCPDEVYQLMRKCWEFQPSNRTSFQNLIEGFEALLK
T2 sequence (O60674 whole entry): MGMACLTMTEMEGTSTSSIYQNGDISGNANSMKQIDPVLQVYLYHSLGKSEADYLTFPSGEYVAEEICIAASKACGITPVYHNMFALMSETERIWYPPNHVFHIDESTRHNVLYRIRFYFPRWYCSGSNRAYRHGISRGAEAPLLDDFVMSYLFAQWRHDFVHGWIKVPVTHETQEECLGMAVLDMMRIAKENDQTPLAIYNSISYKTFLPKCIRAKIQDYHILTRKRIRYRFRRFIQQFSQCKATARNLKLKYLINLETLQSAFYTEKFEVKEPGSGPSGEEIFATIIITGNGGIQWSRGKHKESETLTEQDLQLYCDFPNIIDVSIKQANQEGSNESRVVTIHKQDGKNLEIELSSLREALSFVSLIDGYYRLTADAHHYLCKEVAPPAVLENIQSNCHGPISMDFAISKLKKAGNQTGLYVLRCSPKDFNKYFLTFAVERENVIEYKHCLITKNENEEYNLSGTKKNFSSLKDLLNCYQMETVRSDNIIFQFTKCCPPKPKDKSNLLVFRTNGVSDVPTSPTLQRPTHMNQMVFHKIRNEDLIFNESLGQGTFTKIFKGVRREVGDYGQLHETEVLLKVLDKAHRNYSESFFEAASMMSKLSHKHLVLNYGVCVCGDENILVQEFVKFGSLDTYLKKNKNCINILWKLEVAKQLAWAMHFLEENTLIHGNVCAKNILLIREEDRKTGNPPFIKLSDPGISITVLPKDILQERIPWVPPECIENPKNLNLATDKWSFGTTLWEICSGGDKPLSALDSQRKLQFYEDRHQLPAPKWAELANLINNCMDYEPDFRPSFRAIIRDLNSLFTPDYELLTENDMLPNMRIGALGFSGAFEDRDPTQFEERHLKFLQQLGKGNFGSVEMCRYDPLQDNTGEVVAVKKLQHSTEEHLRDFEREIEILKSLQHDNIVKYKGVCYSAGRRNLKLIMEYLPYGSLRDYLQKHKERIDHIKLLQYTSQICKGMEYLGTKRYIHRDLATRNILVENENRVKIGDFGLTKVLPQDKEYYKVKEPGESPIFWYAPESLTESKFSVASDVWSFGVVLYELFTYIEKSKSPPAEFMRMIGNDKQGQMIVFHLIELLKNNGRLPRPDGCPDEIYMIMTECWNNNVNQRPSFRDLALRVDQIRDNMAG

In general, inhibition refers to the change of the read-out against control, counted positive when it falls. What is called IC50 is the concentration that inhibits the measured activity by half. The low end stands for inhibition by little substance, the high end for a need for much substance. With `Cc1c(-c2ncnc3[nH]ccc23)nnn1Cc1ccc(S(C)(=O)=O)cc1`, the inhibition in [1] turned out to be 76.6%; in assay [3] it was 8%; in assay [5], 20.6%; in assay [6], 2.7%. In addition, the IC50 is 386 nM in [2] and > 10000 nM in [4].
For the compound `Cc1c(-c2ncnc3[nH]ccc23)nnn1Cc1ccccc1OC(F)(F)F`, the values for the inhibition in assay [1], in assay [3] and in assay [5] were 21.6%, 11.6% and 20.3%, respectively.
Take `Cc1c(-c2ncnc3[nH]ccc23)nnn1Cc1ccc(C(C)(C)C)cc1`: the inhibition in assay [1] stood at 21.6%; in assay [3], 15%; in assay [5], 3%.
In the case of `Cc1c(-c2ncnc3[nH]ccc23)nnn1Cc1ccc(Br)cc1`, the inhibition was found to be 94% in [1], 49.3% in assay [3], 30% in assay [5] and 61.6% in [6]. Besides, the results for the IC50 in assay [2] and in assay [4] were 97 nM and 784 nM, respectively. Besides, the Ratio IC50 in assay [7] came out at 8.
With `Cc1c(-c2ncnc3[nH]ccc23)nnn1Cc1ccc(C(F)(F)F)cc1`, the inhibition is 86.7% in [1], 32.7% in assay [3] and -8.7% in [5].
Consider `Cc1ccc(Cn2nnc(-c3ncnc4[nH]ccc34)c2C)cc1`, for which the inhibition worked out at 74% in [1], 10% in assay [3] and 6% in assay [5]. For the same compound, the Selectivity Index turned out to be 7.4 in [8] and 12.3 in assay [9].
Consider `Cc1c(-c2ncnc3[nH]ccc23)nnn1Cc1ccc(F)cc1`, for which the inhibition in [1] is 75%; in assay [3], 39%; in assay [5], 14%.
For `Cc1c(-c2ncnc3[nH]ccc23)nnn1CCc1ccc(OC(F)(F)F)cc1`, in that order: 17.3%, 3.7% and 20.3%.
For `Cc1c(-c2ncnc3[nH]ccc23)nnn1Cc1ccccc1`, the inhibition was 28% in assay [1], 14% in assay [3] and -9% in assay [5].
Take `Cc1c(-c2ncnc3[nH]ccc23)nnn1CCc1ccccc1`: the results for the inhibition in [1], in [3] and in assay [5] were 12.5%, 18.7% and 13.3%, respectively.
For `Cc1c(-c2ncnc3[nH]ccc23)nnn1Cc1ccc(OC(F)(F)F)cc1`, in that order: 69.5%, 13% and -3.7%.
As for `Cc1c(-c2ncnc3[nH]ccc23)nnn1CCCc1ccc(I)cc1`, the values for the inhibition in [1], in assay [3] and in assay [5] were 61.7%, 49.7% and 52%, respectively.
For `Cc1c(-c2ncnc3[nH]ccc23)nnn1Cc1cccc(OC(F)(F)F)c1`, the inhibition in assay [1] is 19.3%; in assay [5], 0%.
With `Cc1c(-c2ncnc3[nH]ccc23)nnn1CCc1ccc(I)cc1`, the inhibition in assay [1] worked out at 54.7%; in [3], 19.7%.
As to `COc1ccc(Cn2nnc(-c3ncnc4[nH]ccc34)c2C)cc1`, the inhibition in [1] was 51%; in [3], 3%; in [5], 5%. The Selectivity Index turned out to be 17 in assay [8] and 10.2 in assay [9].
Turning to `Cc1c(-c2ncnc3[nH]ccc23)nnn1Cc1ccc(Cl)cc1`, the inhibition in [1] was 92%; in assay [3], 50%; in assay [5] it was 36%; in assay [6] it was 67%. Further, the IC50 in assay [2] worked out at 107 nM; in assay [4], 959 nM. Moreover, the Ratio IC50 in assay [7] is 9.
`Cc1c(-c2ncnc3[nH]ccc23)nnn1Cc1ccc(C#N)cc1`: the results for the inhibition in assay [1], in assay [3] and in assay [5] were 69.3%, 15% and 7.3%, respectively.
For `Cc1c(-c2ncnc3[nH]ccc23)nnn1CCCc1ccccc1`, the results for the inhibition in [1], in assay [3] and in assay [5] were 48%, 10.7% and 11.3%, respectively. Besides, the values for the Selectivity Index in assay [8] and in [9] were 5 and 12.3, respectively.
On to `Cc1ccc(CCn2nnc(-c3ncnc4[nH]ccc34)c2C)cc1`, for which the inhibition in assay [1] is 12.3%; in [5], 4%.
`Cc1c(-c2ncnc3[nH]ccc23)nnn1CCc1ccc(C(F)(F)F)cc1`: the inhibition in assay [1] was 32.7%; in assay [3], 8.7%; in assay [5], 35%.
As for `Cc1c(-c2ncnc3[nH]ccc23)nnn1Cc1ccc(I)cc1`, the inhibition in assay [1] stood at 94%; in assay [3], 54%; in assay [5] it was 20.3%; in assay [6] it was 41.3%. In addition, the IC50 in [2] was found to be 72 nM; in [4] it was 839 nM. Also, the Ratio IC50 in [7] amounted to 12.
